Laboratory results: patent publication US20230032623A1, “Tumor-on-a-chip” (NEW YORK UNIVERSITY, priority 2021, published 2023)
“Also recorded” adds a separate entry of the source.

Tests used:
Type in all cases: cell-based, human
PD-L1 = experiment: qPCR analysis of PD-L1 expression in TAM and GBM cell
Protocol: Control groups were treated with fresh cell culture media supplemented with DMSO (0.01%) and human IgG4 isotype control antibody (1 μg/mL, BioLegend). Fresh cell culture media supplemented anti-PD-1 and anti-CSF-1R antibodies was loaded in the microfluidic channels 2 hr after loading allogeneic CD8+ T-cells. Blocking media was freshly prepared and replenished every 24 hr for 3 days.
RNA was extracted using RNeasy Plus Mini Kit (Qiagen, US), and cDNA was synthesized from the mRNA using SuperScript IV VILO Master Mix for RT-RCR (Invitrogen, US), followed by real-time PCR using a SYBR Green PCR Master Mix (Thermo Fisher Scientific, US) and QuantStudio six sequence detection system (Applied Biosystems, Thermo Fisher Scientific). The reactions were performed with the following cycling conditions: 95° C. for 10 min followed by 40 cycles of 95° C. for 15 s and 60° C. for 1 min. GAPDH was used as a housekeeping gene for normalization. All experiments were repeated three times. The relative change in gene expression was analyzed with the 2^−ΔΔCT method. […]

allogeneic CD8+ T-cells [1] = experiment: Allogeneic CD8+ T-cell extravasation/infiltration across brain microvessels in GBM-on-a-Chip; settings: BLZ945 0.1 μg/ml, nivolumab 1 μg/ml, mono or dual, every 24 hr for 3 days, PN, CL, MES GBM
Protocol: (§1) Patient-derived GBM cells were firstly dissociated with Accutase (Innovative Cell Technologies), and then labeled with CellTracker Red (5 μM, C34552, Thermo Fisher-Scientific) as per the manufacturer's instructions. TAMs and GBM cells were then mixed with a number ratio of 1:2 at a cell density of 1×10^8 cells/mL in the brain tissue-mimicking hydrogel. The final cell numbers of GBM and TAMs were about 1×10^5 cells per chip. […] Hydrogel solution was then quickly flushed into the hydrogel loading channel, and then incubated in an incubator at 37° C. and 5% CO2 for 30 min for complete gelation. After incubation, the media infusion channel and the vascular-seeding channel was flushed with fresh cell culture media for 2 hr. HBMVECs labeled with DiD (5 μM, V22887, Thermo Fisher-Scientific) were seeded into the vascular-seeding channel at a density of 5×10^6 cells/mL, and incubated at 37° C. and 5% CO2 overnight with fresh cell culture media. To form the vascular lumens, the microfluidic chip was flipped every 15 mins for 2 hr to let HBMVECs to uniformly attach to the vascular-seeding channel. After 24 hr′ incubation, IL-2 activated allogeneic CD8+ T-cells were firstly labeled with CellTracker Green (5 μM, C2925, Thermo Fisher-Scientific) and loaded into the vascular channel at a total cell number of 1×10^6 cells per chip. After culture in the incubator for 1-3 days, live cell images of different cell compartments were captured by an inverted fluorescent microscope (Zeiss Axio Observer.Z1).
Infiltrated CD8+ T-cells were defined as the CD8+ T-cells migrating out of vascular lumens. To quantify the migration behaviors of those CellTracker Green-labeled allogeneic CD8+ T-cells, time-lapsed image stacks were acquired every minute for 2 hr and at least three positions in each microfluidic chip. The cell centroids at different time points of the same cell were then used to calculate the cell migration speed and linked up to represent the migration trajectories by using ImageJ (NIH). The mean migration speeds were then averaged for all infiltrated cells. […]

allogeneic CD8+ T-cells [2] = experiment: CD8+ T-cell activation analysis (CD154 expression) in GBM-on-a-Chip; settings: BLZ945 0.1 μg/ml, nivolumab 1 μg/ml, mono or dual, 3 days
Protocol: To characterize the expression of surface marks on GBM cell, CD8+ T-cell and TAM, cells were firstly recovered with Corning Cell Recovery Solution (Corning, N.Y., USA) from the brain tissue-mimicking hydrogel. Briefly, cell culture medium was aspirated, and the microfluidics chip was rinsed with cold 1× PBS twice, 10 min per round. PDMS slabs were detached from the cover glass in the microfluidics chip, followed by incubation with Corning Cell Recovery Solution on ice for 30 min. With gently pipetting the channel containing cells, the cell suspension was centrifuged, washed with cold 1 x PBS twice and then resuspended in 5% BSA blocking buffer. All cell samples were fixed in 4% paraformaldehyde (PFA) (Sigma-Aldrich) for 10 min at room temperature. […] To quantify PD-1 expression on CD8+ T-cell, cells were first incubated with PD-1 primary antibody (367402, Biolegend) for 1 hr, and then visualized with Alexa Fluor 488 conjugated goat anti-mouse IgG secondary antibodies (Invitrogen, 5 μg/mL). […] PD-1 and CD154 expressions on CD8+ T-cell, PD-L1 and CD163 expressions on macrophage were quantified based on the mean florescent intensity of cell staining using ImageJ (NIH). Alternatively, ratios of CD154+ or CD163+-cells were calculated relative to CD8+ cells or CD68+ cells, respectively. […]

[3] = tested on: patient-derived GBM cells; experiment: Quantification of GBM cell apoptosis (caspase-3/7 activation) in GBM-on-a-Chip; settings: BLZ945 0.1 μg/ml, nivolumab 1 μg/ml, mono or dual; for GBM cell apoptosis with presence of microglia versus macrophage only system: HMC3 microglia present, PN, CL, MES GBM
Protocol: as §1
To examine the apoptosis of GBM cells in the microfluidic model, CellEvent Caspase-3/7 Green Detection Reagent (R37111, Thermo Fisher-Scientific) and Hoechst 33342 (5 μg/mL; H3570, Thermo Fisher-Scientific) were used to distinguish the apoptotic cells that with activated caspase-3/7 with bright green nuclei. […] The ratio of apoptotic GBM cells were calculated as the number of cells with green nuclei to the total number of GBM cells that were stained with CellTracker Red (5 μM, C34552, Thermo Fisher-Scientific). […]

[4] = tested on: tumor-associated macrophages (TAMs); experiment: CD163 (M2-like marker) expression on TAM in GBM-on-a-Chip, immunostaining and qPCR
Protocol: U937 monocytes were polarized into macrophages with treatments of 5 nM PMA (Sigma-Aldrich) for 24 hr (Shi Y et al., Nature communications. 2017 Jun. 1; 8(1):1-7). Biomimetic TAMs (CD68+CD163+) were obtained by culturing U937-derived macrophages in complete culture media supplemented with supernatants of patient-derived GBM cells (5×10^5 cells/mL) which were collected after 3 days' culture and centrifuged at 2000×g for 10 min at 4° C. to remove cell debris. Cryopreserved human PBMCs (10HU-003, iXCells Biotechnologies) were thawed and cultured in RPMI-1640 medium (Gibco) supplemented with 10% FBS (Gibco) and 1% penicillin/streptomycin (Gibco) overnight before sorting for CD8+ T-cells. Allogeneic CD8+ T-cells were isolated from PBMCs via negative selection using MojoSort Human CD8 T-Cell Isolation Kit (MojoSort, 480011, Biolegend) as per the manufacturer's protocol (FIG. 7A through FIG. 7D). […]
To characterize the expression of surface marks on GBM cell, CD8+ T-cell and TAM, cells were firstly recovered with Corning Cell Recovery Solution (Corning, N.Y., USA) from the brain tissue-mimicking hydrogel. […] To quantify PD-1 expression on CD8+ T-cell, cells were first incubated with PD-1 primary antibody (367402, Biolegend) for 1 hr, and then visualized with Alexa Fluor 488 conjugated goat anti-mouse IgG secondary antibodies (Invitrogen, 5 μg/mL). […]

Molecule	PD-L1 expression in TAM and GBM cells (PD-L1; BLZ945 0.1 μg/ml alone, qPCR)	mRNA expression of PD-L1 in GBM cell (PD-L1; BLZ945 0.1 μg/ml, GBM cells co-cultured with TAM)	Allogeneic CD8+ T-cell extravasation / infiltrated CD8+ T-cells (allogeneic CD8+ T-cells [1])	Allogeneic CD8+ T-cell extravasation / infiltrated CD8+ T-cells (allogeneic CD8+ T-cells [1]; listed as CSF-1R inhibitor)	CD8+ T-cell activation (CD154 expression, CD154+CD8+ T-cells) (allogeneic CD8+ T-cells [2])	GBM cell apoptosis (caspase-3/7 activation) ([3]; 3 days, macrophage-only system)	GBM cell apoptosis with presence of microglia versus macrophage only system [3]	M2-like marker CD163 expression on TAM / macrophage polarization toward M2 phenotype ([4]; BLZ945 0.1 μg/ml every 24 hr for 3 days, PN (GBML20), CL (GBML08), MES (GBML91) GBM subtypes)	CD163 expression in TAM by qPCR ([4]; BLZ945 0.1 μg/ml, qPCR)
CNC(=O)c1cc(Oc2ccc3nc(N[C@@H]4CCCC[C@H]4O)sc3c2)ccn1 [BLZ945]	no significant change in PD-L1 expression for both TAM and GBM cells	did not change the PD-L1 expression in GBM cells	can significantly enhance allogeneic CD8+ T-cell extravasation across brain microvessels	increased allogeneic CD8+ T-cell infiltration in the tumor	did not significantly reverse the immunosuppression onto the cytotoxic CD8+ T-cell	limited effect on tumor apoptosis	no significant difference with the GBM and macrophage only condition	suppressed the polarization of macrophages toward an immunosuppressive M2 phenotype in all three GBM subtypes with more significant CD163 marker suppression in the CL and MES GBM subtypes relative to the PN GBM; also recorded: limited expression of CD163 in all GBM subtypes	inhibition of CD163 expression in TAM
nivolumab: human IgG4 anti-PD-1 monoclonal antibody; PD-1 blockade	–	–	did not increase the extravasation of allogeneic CD8+ T-cell	–	did enhance CD8+T-cell activation in the PN and MES GBMs	–	no significant difference with the GBM and macrophage only condition	–	–
